Data from PMC12177125, “Anticancer, antimicrobial and molecular docking analysis of newly synthesized iodoquinazoline derivatives” (AMB Express, 2025).
In brackets after ≈: the same amount, converted by molar mass. Several values for one entry are separate records, joined by “and”; a condition that tells them apart may be missing. Equal values may be shown once. Entries after “also recorded” stand apart in the source; their conditions may differ. Read-outs that look alike come from different tables or passages of the source.

Experiments:
[1] = system: HeLa (human cervical cancer); assay: MTT cytotoxicity assay, HeLa; type: cell-based; details: 96 h continuous exposure, read-out: In vitro antitumor activities (IC50) HeLa (Cervical)
Description: (§1) Four immortalized human cancer cell lines served as a panel for testing the compounds' cytotoxicity. The STAT3-null A4 cell line (with homozygously deleted STAT3) is a sub-line of the DLD1 colorectal carcinoma cell line and was a gift from Professor David Thurston, Emeritus Professor of Drug Discovery, King’s College London. The American Type Culture Collection and LGC provided the cell lines for HeLa (human cervical cancer), MIA-PaCa-2 (human pancreatic adenocarcinoma), MDA MB231 (triple negative human breast cancer), and NCI H1975 (human non-small cell lung cancer). Every cell line was kept in monolayer culture in 75 cm^2 flasks (TPP, Switzerland) at 37 °C in a humidified environment containing 5% CO2. The HeLa line was kept in Dulbecco's Modified Eagles Media (DMEM; Invitrogen), which was enhanced with L-glutamine (2 mM; Invitrogen), non-essential amino acids (1 x; Invitrogen), 10% v/v fetal bovine serum, and Penicillin–Streptomycin (1% v/v; Invitrogen).
(§2) Dulbecco's MEM was utilized for MIA PaCa2, and it was enhanced with fetal calf serum (10%, Biosera UK) and L-glutamine (2 mM; Invitrogen). The following materials were employed for sub-culturing: L-glutamine (2 mM; Invitrogen), fetal bovine serum (10%, Biosera UK), high glucose DMEM (4.5 g/l; Invitrogen), Penicillin–Streptomycin (1% v/v, Invitrogen), and non-essential amino acids (1x; Invitrogen). Penicillin–Streptomycin (1% v/v, Invitrogen) and fetal bovine serum (10% v/v; Invitrogen) were added to Roswell Park Memorial Institute Medium 1640 (RPMI 1640, Invitrogen) to sustain the NCI H1975 cell lines. Cells were passaged by rinsing them in PBS (GIBCO 14040, Invitrogen, UK), culturing them with trypsin (GIBCO 25300, Invitrogen, UK), and then reseeding them into new media. Cells were counted for seeding on a non-adherent suspension of cells that were rinsed in PBS, trypsinized, centrifuged at 8 °C for 5 min at 8000 rpm, and then re-suspended in new media using a Neubauer hemocytometer (Assistant, Germany) by microscopy (Nikon, USA).
(§3) Using the proper medium, the cells were cultured under standard cell culture conditions at 37 °C in a humidified atmosphere with 5% CO2. Depending on the cell line, 5,000–20,000 cells were added per well after the cell count was adjusted to 10^5 cells/mL. After a 24-h incubation period, 1 μL of the suitable inhibitor doses were applied in triplicate to the wells (Freimoser et al. [1999]). The MTT colorimetric test (3-(4,5-Dimethylthiazol-2-yl)-2,5-diphenyltetrazolium bromide) (Lancaster Synthesis Ltd, UK) was used to assess the cytotoxicity of each chemical after 96 h of continuous exposure (Freimoser et al. [1999]). Using an Envision Plate Reader from PerkinElmer, USA, spectrophotometry was used to measure absorbance at λ = 570 nm. Using the Prism Graphpad Prism® program, a dose–response analysis was used to get the IC50 values. MDA MB231; HeLa; MIA Cell lysis buffer was added to PaCa2 cells after they had been exposed to different doses of chemical 3e. The cells were then collected. Following the electrophoresis of total cell lysates on precast TGX gels, β-actin and CAXII antibodies were immunoblotted (Ghomashi et al. [2023]). Doxorubicin was used as a positive control (Ghomashi et al. [2023]).

[2] = system: MDA MB231 (triple negative human breast cancer); assay: MTT cytotoxicity assay, MDA MB231; type: cell-based; details: MDA-MB-231, 96 h continuous exposure, read-out: In vitro antitumor activities (IC50) MDA MB231 (Breast)
Description: as §1, §2, §3

[3] = system: MIA-PaCa-2 (human pancreatic adenocarcinoma); assay: MTT cytotoxicity assay, MIA PaCa2; type: cell-based; details: 96 h continuous exposure, read-out: In vitro antitumor activities (IC50) MIA PaCa2 (Pancreatic)
Description: as §1, §2, §3

[4] = system: NCI H1975 (human non-small cell lung cancer); assay: MTT cytotoxicity assay, NCI H1975; type: cell-based; details: 96 h continuous exposure, read-out: In vitro antitumor activities (IC50) NCI H1975 (non-small cell Lung)
Description: as §1, §2, §3

[5] = system: STAT3-null A4 cell line (sub-line of DLD1 colorectal carcinoma); assay: MTT cytotoxicity assay, A4 control cell line; type: cell-based; details: Homo sapiens, DLD-1, 96 h continuous exposure, read-out: In vitro antitumor activities (IC50) A4 Cell line (Control cell line)
Description: as §1, §2, §3

[6] = target: T1, carbonic anhydrase XII (CAXII) (Bos taurus, UniProt P00921); assay: Carbonic anhydrase (CAXII) inhibition, 4-nitrophenyl acetate, 96-well plate; type: biochemical, bovine
T1 construct: purified bovine erythrocyte CA-II; from tissue; host or cells: bovine erythrocytes
T1 sequence (P00921 2-260): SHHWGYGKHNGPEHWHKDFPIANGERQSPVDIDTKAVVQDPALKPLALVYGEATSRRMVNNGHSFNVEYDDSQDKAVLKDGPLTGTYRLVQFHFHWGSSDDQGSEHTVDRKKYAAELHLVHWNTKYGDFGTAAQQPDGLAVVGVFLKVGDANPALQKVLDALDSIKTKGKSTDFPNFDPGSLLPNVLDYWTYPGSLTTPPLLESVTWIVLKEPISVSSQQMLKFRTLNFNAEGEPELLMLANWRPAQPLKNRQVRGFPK

[7] = system: S. aureus (SA) ATCC 25913; assay: Agar well diffusion, S. aureus; type: cell-based, Staphylococcus aureus; details: average of triplicate
Experimental: (§4) The five newly synthesized compounds were first qualitatively evaluated for antibacterial and antifungal activities using Muller-Hinton agar medium (MHA) through the agar well diffusion technique as previously described (Balouiri et al. [2016]). The bacterial test was performed against the following standard strains: S. aureus (SA) ATCC 25913, E. coli (EC) ATCC 25922, P. aeruginosa (PA) ATCC 27853, K. pneumoniae (KP) ATCC 49619. The antifungal activity was evaluated against C. albicans (CA) ATCC 14053 (CLSI [2021]). A bacterial culture and preparation of wells on a seeded MHA plate was performed as previously described (Isleem et al. [2025]). The experiment was done in triplicate according to CLSI guidelines (CLSI [2021]). Secondly, the compounds that gave positive inhibition zones were selected for MIC determination using broth microdilution assay according to CLSI guidelines (CLSI [2021]). […]

[8] = system: E. coli (EC) ATCC 25922; assay: Agar well diffusion, E. coli; type: cell-based, Escherichia coli; details: average of triplicate
Experimental: as §4

[9] = system: P. aeruginosa (PA) ATCC 27853; assay: Agar well diffusion, P. aeruginosa; type: cell-based, Pseudomonas aeruginosa; details: average of triplicate
Experimental: as §4

[10] = system: C. albicans (CA) ATCC 14053; assay: Agar well diffusion, C. albicans; type: cell-based, Candida albicans; details: average of triplicate
Experimental: as §4

[11] = system: S. aureus (SA) ATCC 25913; assay: Broth microdilution MIC, S. aureus; type: cell-based; details: Staphylococcus aureus, ATCC25913, CLSI
[12] = system: E. coli (EC) ATCC 25922; assay: Broth microdilution MIC, E. coli; type: cell-based; details: Escherichia coli, ATCC25922, CLSI
[13] = system: P. aeruginosa (PA) ATCC 27853; assay: Broth microdilution MIC, P. aeruginosa; type: cell-based; details: Pseudomonas aeruginosa, ATCC27853, CLSI
[14] = system: C. albicans (CA) ATCC 14053; assay: Broth microdilution MIC, C. albicans; type: cell-based; details: Candida albicans, ATCC14053, CLSI
Experimental: as §4

[15] = system: four tested tumor cell lines; assay: MTT cytotoxicity assay, panel of the four tumor cell lines; type: cell-based, human; details: for IC50: Homo sapiens, range across HeLa, MDA MB231, MIA PaCa2, NCI H1975, read-out: IC50 / concentration stopping growth, range over the four tumor cell lines
Description: as §1, §2
Using the proper medium, the cells were cultured under standard cell culture conditions at 37 °C in a humidified atmosphere with 5% CO2. Depending on the cell line, 5,000–20,000 cells were added per well after the cell count was adjusted to 10^5 cells/mL. After a 24-h incubation period, 1 μL of the suitable inhibitor doses were applied in triplicate to the wells (Freimoser et al. [1999]). The MTT colorimetric test (3-(4,5-Dimethylthiazol-2-yl)-2,5-diphenyltetrazolium bromide) (Lancaster Synthesis Ltd, UK) was used to assess the cytotoxicity of each chemical after 96 h of continuous exposure (Freimoser et al. [1999]). Using an Envision Plate Reader from PerkinElmer, USA, spectrophotometry was used to measure absorbance at λ = 570 nm. […]

[16] = read-out: CAXII inhibitory activity (IC50)

Structure (SMILES)	IC50 [1]	IC50 [2]	IC50 [3]	IC50 [4]	IC50 [5]	IC50 [6, 16]	Inhibition Zone SA ATCC 25913 [7]	Inhibition Zone EC ATCC 25922 [8]	Inhibition Zone PA ATCC 27853 [9]	Inhibition Zone CA ATCC 14053 [10]	MIC [11]	MIC [12]	MIC [13]	MIC [14]	Anticancer activity against the four tested tumor cell lines (in words) [15]	IC50 [15]	IC50 ([6]; text of b65, unit printed nM, read-out: CAXII inhibition (converted))
COc1ccc(-c2nc(Nc3ccc(S(=O)(=O)Nc4nccs4)cc3)c3cc(I)ccc3n2)cc1OC [Compound 3e, 6-Iodo-2-(3,4-dimethoxyphenyl)-4-(4-(thiazol-2-yl)aminosulphonylphenyl-amino)-quinazoline]	> 50 µM	> 50 µM	> 50 µM	> 50 µM	> 50 µM	> 50000 nM	14 mm	10 mm	10 mm	12 mm	16 µg/mL (≈ 24.8 µM)	32 µg/mL (≈ 49.6 µM)	32 µg/mL (≈ 49.6 µM)	16 µg/mL (≈ 24.8 µM)	devoid of anticancer activities; also recorded: weak activity		
OC(Cn1cncn1)(Cn1cncn1)c1ccc(F)cc1F [Fluconazole, reference compound]										20 mm				1 µg/mL (≈ 3.27 µM)			
O=S(=O)(Nc1nccs1)c1ccc(Nc2nc(-c3ccccc3)nc3ccc(I)cc23)cc1 [Compound 3c, 6-Iodo-2-phenyl-4-(4-(thiazol-2-yl)aminosulphonylphenyl-amino) quinazoline]	4 ± 0.66 µM	6.4 ± 0.9 µM	5.5 ± 0.8 µM	8 ± 0.5 µM	> 50 µM	3690 nM	22 mm	15 mm	12 mm	16 mm	1 µg/mL (≈ 1.71 µM)	4 µg/mL (≈ 6.83 µM)	16 µg/mL (≈ 27.3 µM)	4 µg/mL (≈ 6.83 µM)		4 to 8 µM	
COc1ccc(-c2nc(Nc3ccc(S(N)(=O)=O)cc3)c3cc(I)ccc3n2)cc1 [Compound 3b, 6-Iodo-4-(4-aminosulphonylphenyl-amino)-2-(4-methoxyphenyl)-quinazoline]	6.1 ± 0.12 µM	7.3 ± 0.8 µM	7.3 ± 0.9 µM	9.1 ± 1.8 µM	> 50 µM	3690 nM and 3750 nM	18 mm	12 mm	10 mm	10 mm	2 µg/mL (≈ 3.76 µM)	8 µg/mL (≈ 15 µM)	32 µg/mL (≈ 60.1 µM)	16 µg/mL (≈ 30.1 µM)		6 to 9 µM	
O=C(O)c1cn(C2CC2)c2cc(N3CCNCC3)c(F)cc2c1=O [Ciprofloxacin, reference compound]							21 mm	25 mm	25 mm								
NS(=O)(=O)c1ccc(Nc2ncnc3ccc(I)cc23)cc1 [Compound 3a, 6-Iodo-4-(4-aminosulphonylphenyl-amino) quinazoline]	10.5 ± 1.6 µM	12 ± 1.25 µM	14 ± 1.6 µM	13.2 ± 1.5 µM	> 50 µM	9510 nM	14 mm	10 mm	0 mm	10 mm	8 µg/mL (≈ 18.8 µM)	8 µg/mL (≈ 18.8 µM)		16 µg/mL (≈ 37.5 µM)			
COc1cccc2c1C(=O)c1c(O)c3c(c(O)c1C2=O)C[C@@](O)(C(=O)CO)C[C@@H]3O[C@H]1C[C@H](N)[C@H](O)[C@H](C)O1 [Doxorubicin, reference compound]	3.25 ± 0.5 µM	2.7 ± 0.6 µM	2.3 ± 0.6 µM	2.8 ± 0.5 µM												2.3 to 3.25 µM	
COc1ccc(-c2nc(Nc3ccc(S(=O)(=O)Nc4nccs4)cc3)c3cc(I)ccc3n2)cc1 [Compound 3d, 6-Iodo-2-(4-methoxyphenyl)-4-(4-(thiazol-2-yl)aminosulphonylphenyl-amino)-quinazoline]	8.2 ± 2.1 µM	6.4 ± 1.76 µM	6.1 ± 1.3 µM	12.3 ± 0.9 µM	> 50 µM	8190 nM	16 mm	10 mm	12 mm	12 mm	4 µg/mL (≈ 6.5 µM)	32 µg/mL (≈ 52 µM)	32 µg/mL (≈ 52 µM)	8 µg/mL (≈ 13 µM)			8910 nM
